Measurements reported in ChEMBL document CHEMBL3853341, “Nuclear magnetic resonance studies reveal stabilization of parallel G-quadruplex DNA [d(T2G4T)]4 upon binding to protoberberine alkaloid coralyne” (Bioorg Med Chem Lett, 2016).
Calls of active or inactive are those of the source. The rule behind the calls is not given here.

How the values were obtained:
[1] = Binding affinity to [d(T2G4T)]4 G-quadruplex DNA (unknown origin) assessed as upfield shift in G4pG5 signal at ligand:DNA molar ratio of 0.25:1 to 2:1 by 1D 31P NMR method
[2] = Binding affinity to [d(T2G4T)]4 G-quadruplex DNA (unknown origin) assessed as upfield shift in G5pG6 signal at ligand:DNA molar ratio of 0.25:1 to 2:1 by 1D 31P NMR method
[3] = Binding affinity to [d(T2G4T)]4 G-quadruplex DNA (unknown origin) assessed as broadening of G5NH signal by measuring upfield shift at ligand:DNA molar ratio of 2 by 1D 1H NMR method
[4] = Binding affinity to [d(T2G4T)]4 G-quadruplex DNA (unknown origin) assessed as broadening of T7H6 signal by measuring downfield shift at ligand:DNA molar ratio of 2 by 1D 1H NMR method
[5] = Binding affinity to [d(T2G4T)]4 G-quadruplex DNA (unknown origin) assessed as broadening of G4NH signal by measuring upfield shift at ligand:DNA molar ratio of 2 by 1D 1H NMR method
[6] = Binding affinity to [d(T2G4T)]4 G-quadruplex DNA (unknown origin) assessed as change in intensity of positive band at 264 nanometer by circular dichroism method
[7] = Binding affinity to [d(T2G4T)]4 G-quadruplex DNA (unknown origin) assessed as diffusion coefficient of H1/H16 proton signal at ligand:DNA molar ratio of 2 by NMR DOSY method (reference value: 5.08 10^-10m2/sec)
[8] = Binding affinity to [d(T2G4T)]4 G-quadruplex DNA (unknown origin) assessed as upfield shift in compound 1OCH3 signal at ligand:DNA molar ratio of 2 by 1D 1H NMR method
[9] = Binding affinity to [d(T2G4T)]4 G-quadruplex DNA (unknown origin) assessed as upfield shift in compound 16OCH3 signal at ligand:DNA molar ratio of 2 by 1D 1H NMR method
[10] = Binding affinity to [d(T2G4T)]4 G-quadruplex DNA (unknown origin) assessed as broadening of G3NH signal by measuring upfield shift at ligand:DNA molar ratio of 2 by 1D 1H NMR method
[11] = Binding affinity to [d(T2G4T)]4 G-quadruplex DNA (unknown origin) assessed as broadening of T2CH3 signal by measuring downfield shift at ligand:DNA molar ratio of 2 by 1D 1H NMR method
[12] = Binding affinity to [d(T2G4T)]4 G-quadruplex DNA (unknown origin) assessed as broadening of T7CH3 signal by measuring downfield shift at ligand:DNA molar ratio of 2 by 1D 1H NMR method
[13] = Binding affinity to deoxy(T2G4T)]4 G-quadruplex DNA (unknown origin) assessed as formation of negative induced CD band at 25 uM by […]
[14] = Binding affinity to [d(T2G4T)]4 G-quadruplex DNA (unknown origin) assessed as upfield shift in compound 5OCH3 signal at ligand:DNA molar ratio of 2 by 1D 1H NMR method
[15] = Binding affinity to [d(T2G4T)]4 G-quadruplex DNA (unknown origin) assessed as formation of 3'-flanking guanine at ligand:DNA molar ratio of 2 by 2D 1H-1H NOESY NMR spectroscopy
[16] = Binding affinity to [d(T2G4T)]4 G-quadruplex DNA (unknown origin) assessed as downfield shift in T2pG3 signal at ligand:DNA molar ratio of 0.25:1 to 2:1 by 1D 31P NMR method
[17] = Binding affinity to [d(T2G4T)]4 G-quadruplex DNA (unknown origin) assessed as upfield shift in compound 15OCH3 signal at ligand:DNA molar ratio of 2 by 1D 1H NMR method
[18] = Binding affinity to [d(T2G4T)]4 G-quadruplex DNA (unknown origin) assessed as downfield shift in G6pT7 signal at ligand:DNA molar ratio of 0.25:1 to 2:1 by 1D 31P NMR method
[19] = Binding affinity to [d(T2G4T)]4 G-quadruplex DNA (unknown origin) assessed as broadening of G6NH signal by measuring upfield shift at ligand:DNA molar ratio of 2 by 1D 1H NMR method
[20] = Binding affinity to [d(T2G4T)]4 G-quadruplex DNA (unknown origin) assessed as change in intensity of negative band at 242 nanometer by circular dichroism method
[21] = Binding affinity to deoxy(T2G4T)]4 G-quadruplex DNA (unknown origin) assessed as G3NH/G6NH signal by measuring melting temperature by 1H NMR spectroscopy
[22] = Binding affinity to [d(T2G4T)]4 G-quadruplex DNA (unknown origin) assessed as diffusion coefficient of G3H8 proton signal at ligand:DNA molar ratio of 2 by NMR DOSY method
[23] = Binding affinity to [d(T2AG3T)]4 G-quadruplex DNA (unknown origin) containing human telomeric repeat assessed as increase in melting temperature by NMR spectroscopic analysis

## COc1cc2cc3c4cc(OC)c(OC)cc4cc[n+]3c(C)c2cc1OC
[1]
  Activity: 0.12 ppm
[2]
  Activity: 0.12 ppm
[3]
  Activity: 0.38 ppm
[4]
  Activity: 0.33 ppm
[5]
  Activity: 0.37 ppm
[6]
  Activity: Active
[7]
  D: 3.31 ×10⁻¹⁰ m2/s
[8]
  Activity: 0.49 ppm
[9]
  Activity: 0.61 ppm
[10]
  Activity: 0.54 ppm
[11]
  Activity: 0.17 ppm
[12]
  Activity: 0.22 ppm
[13]
  Activity: Active
[14]
  Activity: 0.72 ppm
[15]
  Activity: Active
[16]
  Activity: 0.28 ppm
[17]
  Activity: 0.46 ppm
[18]
  Activity: 0.27 ppm
[19]
  Activity: 0.8 ppm
[20]
  Activity: Active
[21]
  ΔTm: > 20 °C
[22]
  D: 3.26 ×10⁻¹⁰ m2/s

## O=c1c(O)c(-c2ccc(O)c(O)c2)oc2cc(O)cc(O)c12
[23]
  ΔTm: 20 °C

## Cc1cc2c3c([n+](C)c4ccc(F)cc4c3c1)-c1cc(F)ccc1N2C
[23]
  ΔTm: 20 °C
